Literature values as cited in patent publication US10918699B2, “Therapeutic treatment for neurotrophic keratopathy” (priority 2017, dated 2021).

Columns and labels:
[1] = system: corneal epithelium wound healing; settings: together with substance-P; several pre-clinical studies
[2] = system: cultured sheets of corneal epithelial cells
[3] = system: corneal ulcers; settings: systemic administration, humans, 1945 case series

Row | Substance | corneal epithelium wound healing [1] | cell migration and closure of artificial wounds [2] | healing of corneal ulcers [3]
1 | Insulin-like growth factor-1 [IGF-1] | act synergistically with substance-P | – | –
2 | insulin | – | promoted cell migration and closure of artificial wounds | improved healing
